From patent US20250084092A1, “ANNULATED PYRIDAZINE COMPOUND” (Nico Therapeutics, Inc., priority 2021, published 2025)

Key:
NLRP3 inflammasome = biological target: T1, NLRP3 inflammasome (Homo sapiens, UniProt Q96P20); test: THP-1 IL-1β production inhibition test; type: cell-based; conditions: PMA-treated THP-1 cells, LPS 50 ng/mL + ATP 5 mM, 2 hours, IL-1β in supernatant by ELISA
T1 construct: endogenous in cells; host or cells: THP-1 cells (PMA-differentiated, stimulated with LPS and ATP)
Method in brief: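 THP-1 cells differentiated with PMA 50 ng/mL for 2 days, then stimulated with LPS 50 ng/mL and ATP 5 mM (final) for 2 h at 37 °C. Supernatant IL-1β measured by ELISA; IC50 from sigmoid Emax nonlinear regression against log compound concentration.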

[1] = system: TNF-α production in THP-1 cells; test: TNF-α production inhibition test; type: cell-based; conditions: Homo sapiens; PMA-treated THP-1 cells, LPS 50 ng/mL, 2 hours, TNF-α in supernatant by ELISA
Protocol: PMA (phorbol myristate acetate, SIGMA, P1585) was added to THP-1 cells in an amount of 50 ng/mL to culture the cells for 2 days at 37° C. The culture medium was replaced with a serum-free RPMI-1640 medium, and a compound with a known concentration was added thereto to culture the cells at 37° C. for 15 minutes. LPS (Lipopolysaccharide SIMGA, L2880) was added so that each final concentration becomes 50 ng/mL, followed by culturing at 37° C. for 2 hours. The supernatants were collected to measure the concentration of TNF-α by ELISA (DuoSet ELISA human TNF-α, R&D Systems, DY210). The TNF-α concentrations were plotted against log concentrations of test compounds, and an IC50 value was calculated by sigmoid Emax model nonlinear regression analysis.

IL-1β p17 = test: Rat central nervous system IL-1β production test; type: in vivo; conditions: Wistar rat, oral, cerebrospinal fluid, LPS + BzATP in cisterna magna, read-out: percent inhibition of IL-1β p17 relative to the solvent-treated group
Protocol: Under isoflurane anesthesia, 10 to 14 weeks-old male Wistar rats were administered with 12.5 μg/5 μL of LPS (SIGMA, L2880) in the cisterna magna, followed by an oral administration of the test compound 2 hours later. After an additional hour, 50 μg/5 μL of BzATP(2′(3′)-O-(4-benzoylbenzoyl)adenosine 5′-triphosphate triethylammonium salt, SIGMA, B6396) was administered into the cisterna magna, and cerebrospinal fluid was collected after 30 minutes. The cerebrospinal fluid was subjected to Western blotting using an anti-IL-1β antibody (Millipore, AB1832P) to quantify IL-1β p17, and the percent inhibition relative to the solvent-treated group was calculated.
The percent inhibition of IL-1β p17 for Examples 1, 2(1), 3(1) and 124, which are compounds of formula (I), relative to the solvent-treated group is shown in the following table. In the table, Dose refers to the dosage of test compounds; Ex1, Ex2(1), Ex3(1), and Ex124 refer to Example 1, Example 2(1), Example 3(1); and Example 124; and “NT” denotes the unmeasured case.

3T3 = test: In vitro phototoxicity test (3T3 NRU); type: cell-based; conditions: In vitro 3T3 NRU Phototoxicity Test, OECD 432, ICH S10
Excerpt: The evaluation of in vitro phototoxicity tests was based on ICH S10: Guidelines for Evaluation of Photosafety of Drugs (Notification No. 0521-1) using a method described in OECD Guidelines for the Testing of Chemicals 432: In vitro 3T3 NRU Phototoxicity Test, 2019).

hERG channel = hERG channel (Homo sapiens, UniProt Q12809); test: Safety pharmacology test: hERG channel inhibitory effect; type: biochemical; conditions: human Ether-a-go-go Related Gene channel
hERG channel, sequence (Q12809 whole entry): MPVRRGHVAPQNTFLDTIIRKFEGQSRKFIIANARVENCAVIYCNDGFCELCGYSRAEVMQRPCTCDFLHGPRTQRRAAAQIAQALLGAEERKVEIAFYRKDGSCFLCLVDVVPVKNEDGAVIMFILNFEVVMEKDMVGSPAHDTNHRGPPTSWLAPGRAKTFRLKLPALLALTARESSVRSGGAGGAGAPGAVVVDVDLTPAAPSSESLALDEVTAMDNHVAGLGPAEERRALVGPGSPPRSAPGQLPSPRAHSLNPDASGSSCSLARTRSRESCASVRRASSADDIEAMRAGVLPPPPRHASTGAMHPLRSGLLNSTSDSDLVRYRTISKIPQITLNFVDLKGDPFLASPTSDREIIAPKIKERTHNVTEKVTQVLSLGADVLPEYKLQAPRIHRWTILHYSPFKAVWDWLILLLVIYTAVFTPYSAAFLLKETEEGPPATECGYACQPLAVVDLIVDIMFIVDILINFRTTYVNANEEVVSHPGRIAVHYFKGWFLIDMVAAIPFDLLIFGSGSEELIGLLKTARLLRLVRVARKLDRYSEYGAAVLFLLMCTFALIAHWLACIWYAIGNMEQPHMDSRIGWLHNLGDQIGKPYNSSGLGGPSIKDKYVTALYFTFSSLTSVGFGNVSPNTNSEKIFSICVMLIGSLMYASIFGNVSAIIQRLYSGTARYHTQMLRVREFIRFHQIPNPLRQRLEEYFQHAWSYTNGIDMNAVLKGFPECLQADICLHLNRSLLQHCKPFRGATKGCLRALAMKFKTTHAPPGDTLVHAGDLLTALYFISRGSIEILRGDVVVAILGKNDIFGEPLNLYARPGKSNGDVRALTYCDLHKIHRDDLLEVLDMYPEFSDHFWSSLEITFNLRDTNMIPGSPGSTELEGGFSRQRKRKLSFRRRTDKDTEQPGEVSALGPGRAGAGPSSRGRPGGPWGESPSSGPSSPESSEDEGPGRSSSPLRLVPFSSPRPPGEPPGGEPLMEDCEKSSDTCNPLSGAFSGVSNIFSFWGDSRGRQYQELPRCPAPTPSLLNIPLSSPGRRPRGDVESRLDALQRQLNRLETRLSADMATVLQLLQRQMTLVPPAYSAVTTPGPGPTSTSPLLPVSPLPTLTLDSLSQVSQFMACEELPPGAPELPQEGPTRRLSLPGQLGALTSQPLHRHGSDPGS
Protocol: For the safety pharmacology test, evaluation of a human Ether-a-go-go Related Gene (hereinafter referred to as hERG) channel inhibitory effect was carried out. The hERG channel inhibitory effect was evaluated using a modified method described in Combinatorial Chemistry & High Throughput Screening, 12, 1, 78-95 (2009).

T1 sequence (Q96P20 whole entry): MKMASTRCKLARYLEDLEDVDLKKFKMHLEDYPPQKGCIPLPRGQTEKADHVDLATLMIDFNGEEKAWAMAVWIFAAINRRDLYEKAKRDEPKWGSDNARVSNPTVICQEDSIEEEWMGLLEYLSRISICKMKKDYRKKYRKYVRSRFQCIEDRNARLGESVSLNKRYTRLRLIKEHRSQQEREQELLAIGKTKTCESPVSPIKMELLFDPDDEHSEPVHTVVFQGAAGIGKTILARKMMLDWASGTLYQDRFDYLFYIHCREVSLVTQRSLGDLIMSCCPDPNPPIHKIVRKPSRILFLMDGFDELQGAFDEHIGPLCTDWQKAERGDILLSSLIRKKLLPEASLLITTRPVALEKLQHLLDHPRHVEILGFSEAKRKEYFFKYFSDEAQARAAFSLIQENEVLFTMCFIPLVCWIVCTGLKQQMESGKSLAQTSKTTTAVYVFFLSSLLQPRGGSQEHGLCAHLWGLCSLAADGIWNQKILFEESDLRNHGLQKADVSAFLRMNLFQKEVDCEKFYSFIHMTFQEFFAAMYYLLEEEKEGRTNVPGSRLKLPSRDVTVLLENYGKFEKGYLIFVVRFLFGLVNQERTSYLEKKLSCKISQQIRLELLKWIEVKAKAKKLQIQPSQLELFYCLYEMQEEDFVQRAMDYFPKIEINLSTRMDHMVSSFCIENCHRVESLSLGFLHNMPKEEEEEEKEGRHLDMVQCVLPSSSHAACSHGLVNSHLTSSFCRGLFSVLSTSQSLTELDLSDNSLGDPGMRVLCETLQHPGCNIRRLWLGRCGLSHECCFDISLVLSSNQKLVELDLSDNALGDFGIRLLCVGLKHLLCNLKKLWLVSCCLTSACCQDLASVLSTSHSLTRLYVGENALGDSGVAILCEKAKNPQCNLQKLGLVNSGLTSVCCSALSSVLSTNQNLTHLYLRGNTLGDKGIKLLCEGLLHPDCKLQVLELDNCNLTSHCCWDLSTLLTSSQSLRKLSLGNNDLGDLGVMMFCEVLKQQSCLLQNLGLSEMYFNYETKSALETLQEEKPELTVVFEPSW

Structure (SMILES) | IC50 (NLRP3 inflammasome) [µM] | IC50 [1] [µM] | inhibition at 0.1 mg/kg (IL-1β p17; Dose 0.1 mg/kg) [%] | inhibition at 0.3 mg/kg (IL-1β p17) [%] | inhibition at 1 mg/kg (IL-1β p17) [%] | phototoxic effect (3T3) | IC50 (hERG channel) [µM] | inhibition at 3 mg/kg (IL-1β p17) [%]
CN1CCC[C@@H](Nc2nnc(-c3ccc(OC(F)F)cc3O)c3c2COCC3)C1 [Example 124, 5-(difluoromethoxy)-2-(4-{[(3R)-1-methylpiperidin-3-yl]amino}-7,8-dihydro-5H-pyrano[3,4-d]pyridazin-1-yl)phenol] | 0.00062 | ≥ 10 | 55 | 49 | 96 | no phototoxic effect | ≥ 10 | –
Oc1cc(OC(F)(F)F)ccc1-c1nnc(N[C@@H]2CCCC[C@H]2O)c2c1CCOC2 [Example 3(1), 2-(4-{[(1R,2R)-2-hydroxycyclohexyl]amino}-7,8-dihydro-5H-pyrano[3,4-d]pyridazin-1-yl)-5-(trifluoromethoxy)phenol] | 0.0022 | ≥ 10 | – | 75 | 82 | no phototoxic effect | ≥ 10 | 72
Oc1cc(C(F)(F)F)ccc1-c1nnc(N[C@@H]2CCCC[C@H]2O)c2c1CCCC2 [Example 1, 2-(4-{[(1R,2R)-2-hydroxycyclohexyl]amino}-5,6,7,8-tetrahydrophthalazin-1-yl)-5-(trifluoromethyl)phenol] | 0.01 | ≥ 10 | – | -12 | 74 | no phototoxic effect | ≥ 10 | 84
Oc1cc(C(F)(F)F)ccc1-c1nnc(N[C@@H]2CCCC[C@H]2O)c2c1CCOC2 [Example 2(1), 2-(4-{[(1R,2R)-2-hydroxycyclohexyl]amino}-7,8-dihydro-5H-pyrano[3,4-d]pyridazin-1-yl)-5-(trifluoromethyl)phenol] | 0.0034 | ≥ 10 | – | 81 | 75 | no phototoxic effect | ≥ 10 | 88
